# According to patent US8003119B2, “Composition for pharmaceutical or dietetic use for combating hair loss” (Giuliani S.p.A., priority 2002, dated 2011):
# Columns and labels:
# Assay type in all cases: in vivo, man
# [1] = system: volunteers with telogenic defluvium; assay: Clinical study: general dermatological visit; details: oral, one capsule a day (spermidine 0.50 mg) for 60 days; compared with placebo group 3
# Experimental: (§1) This controlled, randomized double-blind study was performed according to the present invention by means of the protocols below.
# (§2) Sixty volunteers of both sexes and ranging between 18 and 60 years old were divided into three groups of 20 individuals each, all having the same level of pathology, i.e. telogenic defluvium existing for at least 2 months.
# (§3) Some of these individuals were treated for 60 days with one capsule a day of a composition of the invention, according to the following scheme:
# (§4) Group 1: 20 individuals treated with a composition of the invention containing spermidine alone (0.50 mg per capsule).
# (§5) Group 2: 20 individuals treated with a composition of the invention according to Example 1 described later (spermidine 0.50 mg per capsule). […]
# (§6) The parameters evaluated were the following: • A) General dermatological visit. • B) Microscopic evaluation of the shaft of the hairs (diameter and possible structural changes in the hair). • C) Trichogram, i.e. evaluation of the bulbs in the anagenic (growth) phase, catagenic (involutive stasis) phase, telogenic (pathological precocious hair loss) phase and exogenic (physiological loss of hairs since they are replaced with new hairs). • D) Haematochemical analysis. • E) Pull test (mechanical tensile strength of the hair). • F) Wash test (count of the hairs lost after washing with shampoo). • G) Possible side effects. […]
# [2] = system: volunteers with telogenic defluvium; assay: Clinical study: microscopic evaluation of the hair shaft; details: oral, one capsule a day (spermidine 0.50 mg) for 60 days; placebo virtually unchanged
# Experimental: as §1, §2, §3, §4, §5, §6
# [3] = system: volunteers with telogenic defluvium; assay: Clinical study: trichogram (evaluation of the hair bulbs by phase)
# Experimental: as §1, §2, §3, §4
# (§7) Group 2: 20 individuals treated with a composition of the invention according to Example 1 described later (spermidine 0.50 mg per capsule).
# (§8) Group 3: 20 individuals treated with a placebo, in capsules.
# (§9) The parameters evaluated were the following: • A) General dermatological visit. • B) Microscopic evaluation of the shaft of the hairs (diameter and possible structural changes in the hair). • C) Trichogram, i.e. evaluation of the bulbs in the anagenic (growth) phase, catagenic (involutive stasis) phase, telogenic (pathological precocious hair loss) phase and exogenic (physiological loss of hairs since they are replaced with new hairs). • D) Haematochemical analysis. • E) Pull test (mechanical tensile strength of the hair). • F) Wash test (count of the hairs lost after washing with shampoo). • G) Possible side effects.
# (§10) These parameters were evaluated at time T0 (before the start of the treatment); at time T1 (at the end of the 60 days of treatment); and finally at time T2 (30 days after stopping the administration).
# In this regard, reference is made to the diagrams of FIGS. 1 and 2 in the attached drawings. These show the trichogram of the anagenic and telogenic phases at times T0 (before the start of the treatment); at time T1 (at the end of the 60 days of treatment); and finally at time T2 (30 days after stopping the administration) for the individuals of the three groups, 1 (grey column), 2 (black column) and 3 (pale column). The percentage of hairs in the anagenic phase (FIG. 1) and in the telogenic phase (FIG. 2) for the treated individuals belonging to the three groups under consideration is shown on the y-axis, and the said times T are shown on the x-axis, under which are tabulated the said percentages found.
# [4] = system: volunteers with telogenic defluvium; assay: Clinical study: haematochemical analysis; details: oral, one capsule a day for 60 days
# Experimental: as §1, §2, §3, §4, §5, §6
# [5] = system: volunteers with telogenic defluvium; assay: Clinical study: pull test (mechanical tensile strength of the hair); details: oral, one capsule a day for 60 days; placebo virtually unchanged
# Experimental: as §1, §2, §3, §4, §5, §6
# [6] = system: volunteers with telogenic defluvium; assay: Clinical study: wash test (count and phase of hairs lost after shampoo)
# Experimental: as §1, §2, §3, §4, §7, §8, §9, §10
# This test makes it possible not only to quantify the number of hairs lost after shampooing, but also, by means of a suitable microscopic analysis, to evaluate the phase of the cycle in which the bulb was found when the hair fell out: pathological loss (telogenic) or phase of physiological exchange (exogenic).
# The test results are given in the graph of FIG. 3 in the attached drawings. […]
# [7] = oral, one capsule a day for 60 days, placebo not significantly changed
smiles,measurement,setting,value
"NCCCCNCCCN [spermidine, N-(3-aminopropyl)tetramethylenediamine]",hair loss at dermatological visit,[1],appreciable and significant reduction in the hair loss
same,structure of the hair shaft at dermatological visit,[1],improvement in the structure of the shaft
same,diameter of the hair shaft,[2],increases quite substantially
same,increase in the anagenic phase at T1,"[3]; T1 = end of the 60 days of treatment, relative to T0, placebo 2.7%",8.1%
same,decrease in the telogenic phase at T1,"[3]; T1 = end of the 60 days of treatment, placebo increased by about 1.88%",9.1%
same,decrease in the telogenic phase at T2,"[3]; T2 = 30 days after stopping the 60-day administration, placebo 4.16%",6.76%
same,increase in the anagenic phase at T2 relative to T0,"[3]; T2 = 30 days after stopping the 60-day administration, placebo 7.79%",17.2%
same,number of bulbs in the anagenic phase (in words),[3]; [7],increases significantly
same,telogenic phase (in words),[3]; [7],decreases significantly
same,haematochemical analyses,[4],within the norm
same,mechanical tensile strength of the hair (pull test),[5],increased significantly
same,lost hairs in the telogenic phase (pathological loss),"[6]; bulbs of hairs lost in the wash test, placebo more than 90%",63%
same,lost hairs in the exogenic phase (physiological loss),"[6]; bulbs of hairs lost in the wash test, placebo only 3%",33%
same,number of hairs lost in the wash test,"[6]; oral, one capsule a day for 60 days, placebo unchanged",decreases significantly
